This passage reports Activity results from ChEMBL document CHEMBL4665687, “Isolation of 2-Alkyl-4-quinolones with Unusual Side Chains from a Chinese Pseudomonas aeruginosa Isolate” (J Nat Prod, 2020).

The subject of assay [1] is Staphylococcus epidermidis. In words: Antibacterial activity against Staphylococcus epidermidis. It counts as functional, organism-based.
Assay [2] deals with Staphylococcus aureus. In words: Antibacterial activity against Staphylococcus aureus. It counts as functional, organism-based.
Assay [3] has as its system HeLa. In words: Cytotoxicity against human HeLa cells assessed as reduction in cell viability. It counts as functional, cell-based.

The structures appear in SMILES notation. The source made the active and inactive calls. No cut-off for these calls is given here.

Regarding `CCCCCCC/C=C/c1cc(=O)c2ccccc2[nH]1`, the result in assay [1] and in assay [2] was Active. Also, in assay [3], the outcome was inactive.

For the compound `CCCC/C=C/Cc1cc(=O)c2ccccc2[nH]1`, the outcome in assay [1] and in assay [2] was Active. The result in assay [3] was inactive.

In the case of `CCCCCCCCc1cc(=O)c2ccccc2[nH]1`, the outcome in assay [1] and in assay [2] was Active. Besides, the result in assay [3] was inactive.

In the case of `CCCC/C=C/CCCc1cc(=O)c2ccccc2[nH]1`, the outcome in assay [1] and in assay [2] was Active. The outcome in assay [3] was inactive.

Regarding `CCCCCC/C=C\CCCc1cc(=O)c2ccccc2n1O`, the result in assay [1] and in assay [2] was Active. Besides, the outcome in assay [3] was inactive.

`CCCCCC/C=C/Cc1cc(=O)c2ccccc2[nH]1`: the result in assay [1] and in assay [2] was Active. Also, the outcome in assay [3] was inactive.

On to `CCCCCCCc1cc(=O)c2ccccc2[nH]1`, for which the outcome in assay [1] and in assay [2] was Active. The outcome in assay [3] was inactive.

In the case of `CCCCCCCCC/C=C/c1cc(=O)c2ccccc2[nH]1`, the result in assay [1] and in assay [2] was Active. Further, the result in assay [3] was inactive.

With `CC(C)CCCCc1cc(=O)c2ccccc2[nH]1`, the outcome in assay [1] and in assay [2] was Active. In addition, the outcome in assay [3] was inactive.

Consider `CC/C(C)=C/Cc1cc(=O)c2ccccc2[nH]1`, for which the outcome in assay [1] and in assay [2] was Active. The outcome in assay [3] was inactive.

Turning to `CCCCCC/C=C\CCCc1cc(=O)c2ccccc2[nH]1`, the outcome in assay [1] and in assay [2] was Active. In assay [3], the outcome was inactive.

Turning to `CS/C=C/c1cc(=O)c2ccccc2[nH]1`, the outcome in assay [1] and in assay [2] was Active. Further, the outcome in assay [3] was inactive.

`CCCCCCCCCc1cc(=O)c2ccccc2[nH]1`: the outcome in assay [1] and in assay [2] was Active. Besides, the outcome in assay [3] was inactive.

As to `CCCCC/C=C/c1cc(=O)c2ccccc2[nH]1`, the outcome in assay [1] and in assay [2] was Active. In addition, in assay [3], the result was inactive.

Regarding `CCCCCCCc1cc(O)c2ccccc2[n+]1[O-]`, the result in assay [1] and in assay [2] was Active. Further, in assay [3], the outcome was inactive.

In the case of `O=c1cc(Cc2ccccc2)[nH]c2ccccc12`, the outcome in assay [1] and in assay [2] was Active. The outcome in assay [3] was inactive.
